# Test results published in patent US7919475B2, “Compositions and methods for improving heart function” (The Regents of The University of California, priority 2004, dated 2011).
# Test system: cellular protein O-GlcNAcylation in STZ-induced diabetic hearts
# Experiment: Cellular protein O-GlcNAcylation in diabetic mouse hearts by Western blot
# Format: in vivo
# Conditions: STZ-induced diabetic mice, insulin 50 units/g per day subcutaneously for 2 weeks
# From the text: To rule out any potentially toxic effects of STZ on the heart, several STZ-injected mice were intensively treated with Ultralente human insulin (Eli Lilly and Company, IN) with 50 units/g per day subcutaneously. The insulin treatment commenced on the third day after STZ injection and lasted for 2 weeks. The cellular O-GlcNAcylation in these hearts was compared with that of the non-insulin treated diabetic hearts. In addition, several 20 weeks old male polygenic diabetic NONcNZO10/LtJ mice (The Jackson Laboratory) (see, e.g., Reifsnyder (2002) Diabetes 51:825-832; Leiter (2004) Diabetes 53 Suppl 1:S4-11) were used as a type II diabetic model to investigate the excess O-GlcNAcyaltion level in the diabetic heart independent of STZ administration. These mice developed hyperglycemia at 12-16 weeks. At the sacrifice time, blood glucose levels were above 33.3 mmol/L. Animal procedures were performed in accordance with the guidelines established by the Committee on Animal Research at the University of California, San Diego. […]
# Twenty μg of protein was mixed with Laemmli sample buffer at room temperature for 10 min (samples for anti-O-GlcNAc antibody detection was heated at 70° C. for 10 min) and then loaded onto 4-10% gradient Tris/glycine gels. […] Films were scanned and analyzed by IMAGE-J™ software (NIH).
substance,measurement,value
insulin: Ultralente human insulin (Eli Lilly and Company),excess O-GlcNAcylation of cellular protein in diabetic hearts,prevented
